Assay results taken from US7355024B2, “Regulatory sequences for modulation of INGAP expression and reporter constructs” (GMP Endotherapeutics, Inc., priority 2002, dated 2008).

Columns and labels:
[1] = system: hamster INGAP 5′-regulatory region; test: β-galactosidase reporter assay with hamster INGAP 5′-regulatory region fragments in transfected 293T cells; assay type: cell-based; conditions: human 293T cells
Description: Promoter analysis of INGAP identified a number of potential promoter-proximal regulatory sites including the consensus transcription factor binding sites; cAMP response element (CRE), AP-1 and STAT. Promoter-fragment reporter-gene constructs were transiently transfected into 293T cells and co-transfection of secretory alkaline phosphatase was used to normalize for transfection efficiency.
(§1) Reporter constructs containing INGAP 5′-regulatory region fragments 2—3sP (SEQ ID NO: 37), 2—3dP (SEQ ID NO: 38), 2—3pP (SEQ ID NO: 36), 14—3P (SEQ ID NO: 34), 16—3P (SEQ ID NO: 31), or 19—3P (SEQ ID NO: 23) were transfected into human cells. The pβGal-Basic plasmid without the hamster INGAP DNA was also transfected into human cells as a control to measure the level of endogenous reporter activity. Two days following transfection, the cells were treated with PMA for 24 hours or were untreated. To determine the level of promoter activity, the amount of β-galactosidase gene product was determined using a luminescent assay for β-galactosidase.
as §1, with “construct” for “constructs”, “DNA nucleotides 2030 to 3120 was” for “fragments 2—3sP (SEQ ID NO: 37), 2—3dP (SEQ ID NO: 38), 2—3pP (SEQ ID NO: 36), 14—3P (SEQ ID NO: 34), 16—3P (SEQ ID NO: 31), or 19—3P (SEQ ID NO: 23) were”, “LIF” for “PMA”
To map the approximate location of PMA-initiated or LIF-initiated transcription factor binding different fragments of the hamster INGAP 5′-regulatory region were cloned into pβGal-Basic. The fragments cloned into the reporter construct were 2—3sP (SEQ ID NO: 37), 2—3dP (SEQ ID NO: 38), 2—3pP (SEQ ID NO: 36), 14—3P (SEQ ID NO: 34), 16—3P (SEQ ID NO: 31), or 19—3P (SEQ ID NO: 23). […] To determine the level of promoter activity, the amount of β-galactosidase gene product was determined using a luminescent assay for β-galactosidase. […]

INGAP gene = test: Northern RNA analysis of INGAP gene upregulation in AR42J cells; assay type: cell-based; conditions: rat AR42J cells; IL-6 1000 U/ml, 24 hours; FIG. 12
Protocol: To determine if INGAP RNA levels increase after stimulation with a cytokine that signals through STAT, rat amphocrine pancreatic cells, AR42J were treated with IL-6 (1000 U/ml) for 24 hours. Total RNA was extracted from the treated and untreated cells using techniques well known in the art, e.g., using TRIZOL® reagent.
Equal amounts of total RNA (10 μg) were loaded in 2.5% formaldehyde gel and electrophoresed for 4 hours at 70V with a constant circulation of the buffer using a circulating pump. The gel was photographed and washed with water twice at room temperature and soaked in 20×SSC. The gel was transferred to a nylon membrane (Amersham) in 20×SSC overnight following a standard procedure. The membrane was washed with 20×SSC to remove any agar that might have attached to the membrane and baked for 4 hours at […].
One hundred nanograms of hamster INGAP cDNA was labeled using Random Prime Labeling kit (Roche-BMB) and alpha-P^32 dCTP (ICN). Approximately 20 million counts were used for hybridization in 20 ml hybridization buffer following the standard procedure at 42° for overnight. The blot was washed as follows: 2-times at room temperature with 2×SSC for 10 minutes each; 2-times at 42° with 2×SSC for 10 minutes each; 2-times at 55° with 1×SSC for 10 minutes each. The membrane was exposed to the film (XOMAT-Kodak) and kept at −80° C. overnight before developing.

## CCCCCCCCCCCCCC(=O)O[C@@H]1[C@@H](C)[C@@]2(O)[C@@H](C=C(CO)C[C@]3(O)C(=O)C(C)=C[C@@H]23)[C@@H]2C(C)(C)[C@]12OC(C)=O [PMA, phorbol myristate acetate, reference compound]
[1]; constructs 2_3sP, 2_3dP, 2_3pP, 14_3P, 16_3P, 19_3P, PMA 6, 17, 50, 100 or 300 ng/ml, 24 hours, FIG. 10
  promoter activity (β-galactosidase reporter, luminescent assay): activated the cell reporter constructs

## IL-6: cytokine that signals through STAT
INGAP gene
  INGAP gene expression (RNA, Northern analysis): increase in INGAP gene expression

## LIF: human leukemia inhibitory factor (hLIF)
[1]; construct with INGAP 5′-regulatory region nucleotides 2030 to 3120, treated 24 hours, two days after transfection, FIG. 9B
  promoter activity (β-galactosidase reporter, luminescent assay): increase the activity of the 5′-regulatory region of mammalian INGAP
[1]; constructs 2_3sP, 2_3dP, 2_3pP, 14_3P, 16_3P, 19_3P, LIF 1, 10 or 30 ng/ml, 24 hours, FIG. 11
  promoter activity (β-galactosidase reporter, luminescent assay): activated the cell reporter constructs
